Test results: patent US20250082761A1, “DUAL-TARGETED RNA POLYMERASE INHIBITORS: CONJUGATES OF BENZOXAZINO- AND SPIRO-RIFAMYCINS WITH N ALPHA-AROYL-N-ARYL-[…]” (priority 2021, published 2025)
In brackets after ≈: the same amount, converted by molar mass.

Columns and labels:
[1] = test system: Mycobacterium tuberculosis H37Rv; assay: microbe, parasite or virus in culture; assay type: cell-based; settings: read-out: antibacterial activity M. tuberculosis H37Rv MIC
[2] = test system: Mycobacterium avium ATCC 25291; assay: Microplate Alamar Blue MIC assay, M. avium; assay type: cell-based; settings: unit not given
[3] = test system: Mycobacterium abscessus IDR-1400012185; assay type: cell-based; parameters: unit not given here
CYP3A4 = assay: in vitro; settings: male, human, hepatocytes

Structure (SMILES) | MIC [1] | antibacterial activity M. avium ATCC 25291 [2] | antibacterial activity M. abscessus IDR-1400012185 [3] | IC50 (CYP3A4)
[2H]C([2H])(c1ccccc1)C(NC(=O)c1ccccc1F)C(=O)Nc1cc(F)ccc1N1CCC2(CC1)N=C1C(=C3NC(=O)/C(C)=C\C=C\[C@H](C)[C@H](O)[C@@H](C)[C@@H](O)[C@@H](C)[C@H](OC(C)=O)[C@H](C)[C@@H](OC)/C=C/O[C@]4(C)Oc5c(C)c(O)c(c1c5C4=O)C3=O)N2 (stereo partly drawn) [IX-515, spirorifamycin S-(IX-513) conjugate] | 0.031 mg/L (≈ 0.0265 µM) | 0.78 | 6.25 | > 10 µM
[2H]C([2H])(c1ccccc1)[C@@H](NC(=O)c1ccccc1F)C(=O)Nc1cc(F)ccc1N1CCN(c2cc(O)c3nc4c5c6c7c(C)c(O)c5c(=O)c(c-4oc3c2)NC(=O)/C(C)=C\C=C\[C@H](C)[C@H](O)[C@@H](C)[C@@H](O)[C@@H](C)[C@H](O)[C@H](C)[C@@H](OC)/C=C/O[C@@](C)(O7)C6=O)CC1 [IX-519a, desacetyl-3′-hydroxy-benzoxazinorifamycin S-(IX-370a) conjugate] | 0.024 mg/L (≈ 0.0196 µM) | – | – | –
[2H]C([2H])(c1ccccc1)[C@@H](NC(=O)c1ccccc1F)C(=O)Nc1cc(F)ccc1N1CCN(c2cc(O)c3nc4c5c6c7c(C)c(O)c5c(=O)c(c-4oc3c2)NC(=O)/C(C)=C\C=C\[C@H](C)[C@H](O)[C@@H](C)[C@@H](O)[C@@H](C)[C@H](OC(C)=O)[C@H](C)[C@@H](OC)/C=C/O[C@@](C)(O7)C6=O)CC1 [IX-511a, 3'-hydroxy-benzoxazinorifamycin S-(IX-370a) conjugate] | 0.002 mg/L (≈ 0.00158 µM) | 0.024 | 1.56 | 10 µM
CO[C@H]1/C=C/O[C@@]2(C)Oc3c(C)c(O)c4c(O)c(c(/C=N/N5CCN(C)CC5)c(O)c4c3C2=O)NC(=O)/C(C)=C\C=C\[C@H](C)[C@H](O)[C@@H](C)[C@@H](O)[C@@H](C)[C@H](OC(C)=O)[C@@H]1C [rifampin, reference compound] | 0.063 mg/L (≈ 0.0766 µM) | 0.024 | 1.56 | –
[2H]C([2H])(c1ccccc1)[C@@H](NC(=O)c1ccccc1F)C(=O)Nc1cc(F)ccc1N1CCN(c2ccc3nc4c5c6c7c(C)c(O)c5c(=O)c(c-4oc3c2)NC(=O)/C(C)=C\C=C\[C@H](C)[C@H](O)[C@@H](C)[C@@H](O)[C@@H](C)[C@H](OC(C)=O)[C@H](C)[C@@H](OC)/C=C/O[C@@](C)(O7)C6=O)CC1 [IX-516a, benzoxazinorifamycin S-(IX-370a) conjugate] | 0.031 mg/L (≈ 0.0248 µM) | – | 3.13 | 10 µM
